Test results as given in PubChem BioAssay AID1259407 (Chemical Carcinogenesis Research Information System (CCRIS), 2018).
Activity calls are given as the source filed them. How the calls were made is not given here.

System: CCRIS mutagenicity, Ames/micronucleus/aberration tests
Experiment: CCRIS mutagenicity studies

For `C=CC#N`, the mutagenic call (End Point: IN VITRO CHROMOSOMAL ABERRATIONS, Test System: CHL CELLS, Metabolic Activation: RAT, LIVER, S-9, SODIUM PHENOBARBITAL AND 5,6-BENZOFLAVONE) was “active; positive (structural changes)”, the mutagenic call (End Point: IN VIVO CHROMOSOMAL ABERRATIONS, Test System: BONE MARROW CELLS, Species: MOUSE, Strain/Sex: C57B1/6/MALE, Route: IP INJECTION (ONCE)) was “inactive; negative” and the mutagenic call (Test System: AMES SALMONELLA TYPHIMURIUM, Strain/Indicator: TA97, Metabolic Activation: HAMSTER LIVER S-9, AROCLOR 1254 (10%), Method: PREINCUBATION) was “inactive; negative”. For the same molecule, the mutagenic call (Test System: AMES SALMONELLA TYPHIMURIUM, Strain/Indicator: TA97, Metabolic Activation: NONE, Method: PREINCUBATION) was “inactive; negative”, the mutagenic call (Test System: AMES SALMONELLA TYPHIMURIUM, Strain/Indicator: TA97, Metabolic Activation: NONE, Method: STANDARD PLATE) was “inactive; negative” and the mutagenic call (Test System: AMES SALMONELLA TYPHIMURIUM, Strain/Indicator: TA97, Metabolic Activation: RAT LIVER S-9, AROCLOR 1254 (10%), Method: PREINCUBATION) was “inactive; negative”. For the same molecule, the mutagenic call (Test System: AMES SALMONELLA TYPHIMURIUM, Strain/Indicator: TA97, Metabolic Activation: RAT, LIVER, S-9, AROCLOR 1254, Method: STANDARD PLATE) was “inactive; negative”, the mutagenic call (Test System: AMES SALMONELLA TYPHIMURIUM, Strain/Indicator: TA97, Metabolic Activation: S-9, Method: STANDARD PLATE) was “inactive; negative” and the mutagenic call (Test System: AMES SALMONELLA TYPHIMURIUM, Strain/Indicator: TA98, Metabolic Activation: HAMSTER LIVER S-9, AROCLOR 1254 (10%), Method: PREINCUBATION) was “inactive; negative”. The mutagenic call (Test System: AMES SALMONELLA TYPHIMURIUM, Strain/Indicator: TA98, Metabolic Activation: NONE, Method: PREINCUBATION) was “inactive; negative”, the mutagenic call (Test System: AMES SALMONELLA TYPHIMURIUM, Strain/Indicator: TA98, Metabolic Activation: NONE, Method: STANDARD PLATE) was “inactive; negative” and the mutagenic call (Test System: AMES SALMONELLA TYPHIMURIUM; Strain/Indicator: TA98; Metabolic Activation: RAT LIVER S-9, AROCLOR 1254 910%), Method: PREINCUBATION) was “inactive; negative”. The mutagenic call (Test System: AMES SALMONELLA TYPHIMURIUM, Strain/Indicator: TA98, Metabolic Activation: RAT, LIVER, S-9, AROCLOR 1254, Method: STANDARD PLATE) was “inactive; negative”, the mutagenic call (Test System: AMES SALMONELLA TYPHIMURIUM, Strain/Indicator: TA98, Metabolic Activation: S-9, Method: STANDARD PLATE) was “inactive; negative” and the mutagenic call (Test System: AMES SALMONELLA TYPHIMURIUM, Strain/Indicator: TA100, Metabolic Activation: HAMSTER LIVER S-9, AROCLOR 1254 (5%), Method: PREINCUBATION) was “inactive; negative”. For the same molecule, the mutagenic call (Test System: AMES SALMONELLA TYPHIMURIUM, Strain/Indicator: TA100, Metabolic Activation: HAMSTER LIVER S-9, AROCLOR 1254 (5 OR 10%), Method: PREINCUBATION) was “inactive; negative”, the mutagenic call (Test System: AMES SALMONELLA TYPHIMURIUM, Strain/Indicator: TA100, Metabolic Activation: HAMSTER LIVER S-9, AROCLOR 1254 (10% OR 30%), Method: PREINCUBATION) was “active; positive” and the mutagenic call (Test System: AMES SALMONELLA TYPHIMURIUM, Strain/Indicator: TA100, Metabolic Activation: HAMSTER LIVER S-9, AROCLOR 1254 (10%), Method: PREINCUBATION) was “active; positive”. For the same molecule, the mutagenic call (Test System: AMES SALMONELLA TYPHIMURIUM, Strain/Indicator: TA100, Metabolic Activation: HAMSTER LIVER S-9, AROCLOR 1254 (30%), Method: PREINCUBATION) was “active; positive”, the mutagenic call (Test System: AMES SALMONELLA TYPHIMURIUM, Strain/Indicator: TA100, Metabolic Activation: HAMSTER, LIVER, S-9, AROCLOR 1254 (5, 10, 20%), Method: PREINCUBATION) was “active; positive” and the mutagenic call (Test System: AMES SALMONELLA TYPHIMURIUM, Strain/Indicator: TA100, Metabolic Activation: HAMSTER, LIVER, S-9, AROCLOR 1254 (20%), Method: PREINCUBATION) was “active; positive”. The mutagenic call (Test System: AMES SALMONELLA TYPHIMURIUM, Strain/Indicator: TA100, Metabolic Activation: NONE, Method: PREINCUBATION) was “inactive; negative”, the mutagenic call (Test System: AMES SALMONELLA TYPHIMURIUM, Strain/Indicator: TA100, Metabolic Activation: NONE, Method: STANDARD PLATE) was “inactive; negative” and the mutagenic call (Test System: AMES SALMONELLA TYPHIMURIUM, Strain/Indicator: TA100, Metabolic Activation: RAT LIVER S-9, AROCLOR 1254 (5, 10, OR 30%), Method: PREINCUBATION) was “inactive; negative”. For the same molecule, the mutagenic call (Test System: AMES SALMONELLA TYPHIMURIUM, Strain/Indicator: TA100, Metabolic Activation: RAT LIVER S-9, AROCLOR 1254 (5/%, 10% OR 30%), Method: PREINCUBATION) was “inactive; negative”, the mutagenic call (Test System: AMES SALMONELLA TYPHIMURIUM, Strain/Indicator: TA100, Metabolic Activation: RAT LIVER S-9, AROCLOR 1254 (10%), Method: PREINCUBATION) was “inactive; negative” and the mutagenic call (Test System: AMES SALMONELLA TYPHIMURIUM, Strain/Indicator: TA100, Metabolic Activation: RAT, LIVER, S-9, AROCLOR 1254, Method: FLUCTUATION) was “active; positive”. For the same molecule, the mutagenic call (Test System: AMES SALMONELLA TYPHIMURIUM, Strain/Indicator: TA100, Metabolic Activation: RAT, LIVER, S-9, AROCLOR 1254, Method: STANDARD PLATE) was “inactive; negative”, the mutagenic call (Test System: AMES SALMONELLA TYPHIMURIUM, Strain/Indicator: TA100, Metabolic Activation: S-9, Method: STANDARD PLATE) was “inactive; negative” and the mutagenic call (Test System: AMES SALMONELLA TYPHIMURIUM, Strain/Indicator: TA102, Metabolic Activation: NONE, Method: STANDARD PLATE) was “inactive; negative”. For the same molecule, the mutagenic call (Test System: AMES SALMONELLA TYPHIMURIUM, Strain/Indicator: TA102, Metabolic Activation: S-9, Method: STANDARD PLATE) was “inactive; negative”, the mutagenic call (Test System: AMES SALMONELLA TYPHIMURIUM, Strain/Indicator: TA1530, Metabolic Activation: RAT, LIVER, S-9, 3-METHYLCHOLANTHRENE OR PCB OR PHENOBARBITAL, Method: FLUCTUATION) was “active; positive” and the mutagenic call (Test System: AMES SALMONELLA TYPHIMURIUM, Strain/Indicator: TA1530, Metabolic Activation: RAT, LIVER, S-9, PCB OR PHENOBARBITAL, Method: DESICCATOR) was “active; positive”.
